Results filed as inconclusive are left out.
biological target: Zinc finger protein mex-5 (Caenorhabditis elegans) (UniProt Q9XUB2); test: retest of MEX-5 TCR-2 binding inhibitors, confirmation, biochemical, C. elegans, fluorescence polarization, dose retest (AID 449745); settings: Mex-5 / TCR-2 RNA binding;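 note: potency is for blocking Mex-5 binding to labeled TCR2 RNA like unlabeled competitor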
Sequence (Q9XUB2 whole entry, looked up): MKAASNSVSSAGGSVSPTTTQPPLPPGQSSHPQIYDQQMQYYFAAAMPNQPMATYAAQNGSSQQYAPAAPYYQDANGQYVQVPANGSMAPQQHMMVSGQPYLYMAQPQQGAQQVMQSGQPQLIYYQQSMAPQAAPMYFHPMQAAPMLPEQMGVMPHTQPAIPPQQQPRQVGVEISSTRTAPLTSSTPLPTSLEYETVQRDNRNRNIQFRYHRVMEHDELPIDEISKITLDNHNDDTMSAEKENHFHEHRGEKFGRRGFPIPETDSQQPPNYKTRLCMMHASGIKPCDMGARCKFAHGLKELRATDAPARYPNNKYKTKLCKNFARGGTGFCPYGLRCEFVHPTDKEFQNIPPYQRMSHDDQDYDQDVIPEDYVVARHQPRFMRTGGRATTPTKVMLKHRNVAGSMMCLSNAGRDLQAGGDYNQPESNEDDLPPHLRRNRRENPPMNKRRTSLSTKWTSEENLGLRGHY

Compound	AC50
Cc1ccc(C2C(C(=O)c3cccs3)=C(O)C(=O)N2c2nnc(C)s2)cc1 (stereo not drawn)	2.43 µM
CC1(OC(=O)C2CCCC2)C(=O)C=C2C=C(c3ccc(C#N)cc3)OC=C2C1=O (stereo not drawn)	9.38 µM
Cn1c(O)c(/C=N/NC(=O)c2cc3ccccc3cc2O)c2ccccc21	5.01 µM

— PubChem BioAssay AID449745 (Broad Institute, 2010)
